Common to all, as to type: functional, cell-based
One assay deals with MM1.S. Kind of assay: Antiproliferative activity against human MM1.S cells assessed as inhibition of cell growth incubated for 4 hrs by CCK-8 assay. In general terms: Formazan colour is commonly taken as a measure of viable cells.
The nature of assay [1]: Antiproliferative activity against human MINO cells assessed as inhibition of cell growth incubated for 4 hrs by CCK-8 assay.
The subject of a further assay is YT. Kind of assay: Antiproliferative activity against human YT cells assessed as inhibition of cell growth incubated for 4 hrs by CCK-8 assay.
Another assay has as its system H9. In words: Antiproliferative activity against human H9 cells assessed as inhibition of cell growth incubated for 4 hrs by CCK-8 assay. The conditions noted are these: H9, 4 h.
Assay [2] in a line: Antiproliferative activity against human JB-6 cells assessed as inhibition of cell growth incubated for 4 hrs by CCK-8 assay. The note with it: JB6, 4 h.
Another assay concerns NAMALVA. Kind of assay: Antiproliferative activity against human NAMALVA cells assessed as inhibition of cell growth incubated for 4 hrs by CCK-8 assay.
Assay [3] can be described thus: Antiproliferative activity against human VAL cells assessed as inhibition of cell growth incubated for 4 hrs by CCK-8 assay.
The nature of assay [4]: Antiproliferative activity against human Rael cells assessed as inhibition of cell growth incubated for 4 hrs by CCK-8 assay.
The nature of assay [5]: Antiproliferative activity against human Mutu-1 cells assessed as inhibition of cell growth incubated for 4 hrs by CCK-8 assay. The conditions noted are these: Mutu-1, 4 h.

For orientation: IC50 means the concentration at which inhibition is half-maximal. Regarding `CN(C)C(=O)/C(=C/n1cnc(-c2cc(C(F)(F)F)cc(C(F)(F)F)c2)n1)c1ccc(NS(C)(=O)=O)cc1`, in the assay with MM1.S, the IC50 was 8960 nM.

In the case of `Cc1cn(/C=C(/C(N)=O)c2cncnc2)nc1-c1cc(C(F)(F)F)cc(C(F)(F)F)c1`, the IC50 in the assay with MM1.S amounted to 2070 nM.

`NC(=O)/C(=C/n1cnc(-c2cc(C(F)(F)F)cc(C(F)(F)F)c2)n1)c1cc(F)c(F)c(F)c1`: the IC50 with MM1.S was 2430 nM.

With `NC(=O)/C(=C/n1cc(Cl)c(-c2cc(C(F)(F)F)cc(C(F)(F)F)c2)n1)c1cncnc1`, the 50% inhibitory concentration (IC50) in the assay on MM1.S was determined as 2240 nM.

In the case of `N#Cc1cncc(/C(=C\n2cnc(-c3cc(C(F)(F)F)cc(C(F)(F)F)c3)n2)C(N)=O)c1`, in the assay with MM1.S, the concentration for half-maximal inhibition (IC50) was determined as 118 nM.

On to `N#Cc1cn(/C=C(/C(N)=O)c2cncnc2)nc1-c1cc(C(F)(F)F)cc(C(F)(F)F)c1`, for which the IC50 with MM1.S was 1190 nM.

With `CCOc1ccc(/C(=C\n2cnc(-c3cc(C(F)(F)F)cc(C(F)(F)F)c3)n2)C(N)=O)c(F)c1F`, in the assay on MM1.S, the IC50 is greater than 10000 nM.

In the case of `NC(=O)/C(=C/n1cnc(-c2cc(C(F)(F)F)cc(C(F)(F)F)c2)n1)c1cccnc1F`, the half-inhibitory concentration (IC50) in the assay with MM1.S stood at 359 nM.

For `NC(=O)/C(=C/n1cnc(-c2cc(C(F)(F)F)cc(C(F)(F)F)c2)n1)c1ccc(NS(=O)(=O)C2CCCCC2)cc1`, the half-inhibitory concentration (IC50) in the assay with MM1.S was 1270 nM.

For the molecule `Cc1ccc(S(=O)(=O)Nc2ccc(/C(=C\n3cnc(-c4cc(C(F)(F)F)cc(C(F)(F)F)c4)n3)C(N)=O)cc2)cc1`, the 50% inhibitory concentration (IC50) in the assay with MM1.S was found to be 2750 nM.

For the molecule `COc1ccc(/C(=C\n2cnc(-c3cc(C(F)(F)F)cc(C(F)(F)F)c3)n2)C(N)=O)c(F)c1F`, in the assay with MM1.S, the IC50 turned out to be 1200 nM.

Take `NC(=O)/C(=C/n1cnc(-c2cc(C(F)(F)F)cc(C(F)(F)F)c2)n1)c1ccc(C(F)(F)F)nc1`: the IC50 with MM1.S was 363 nM.

With `CCNC(=O)/C(=C/n1cnc(-c2cc(C(F)(F)F)cc(C(F)(F)F)c2)n1)c1ccc(NS(C)(=O)=O)cc1`, the IC50 in the assay with MM1.S came to 2160 nM.

As for `CN(c1ccc(/C(=C\n2cnc(-c3cc(C(F)(F)F)cc(C(F)(F)F)c3)n2)C(N)=O)cc1)S(C)(=O)=O`, in the assay on MM1.S, the half-maximal inhibitory concentration (IC50) was determined as 446 nM.

In the case of `CS(=O)(=O)Nc1ccc(/C(=C\n2cnc(-c3cc(C(F)(F)F)cc(C(F)(F)F)c3)n2)C(N)=O)cc1C(F)(F)F`, the 50% inhibitory concentration (IC50) with MM1.S turned out to be 845 nM.

Turning to `NC(=O)/C(=C/n1cc(F)c(-c2cc(C(F)(F)F)cc(C(F)(F)F)c2)n1)c1cncnc1`, in the assay on MM1.S, the IC50 came to 713 nM.

With `NC(=O)/C(=C/n1cnc(-c2cc(C(F)(F)F)cc(C(F)(F)F)c2)n1)c1ccc(NS(=O)(=O)c2ccccc2)cc1`, the concentration for half-maximal inhibition (IC50) in the assay on MM1.S was 337 nM.

For `CCOC(=O)/C(=C/n1cnc(-c2cc(C(F)(F)F)cc(C(F)(F)F)c2)n1)c1ccc(NS(C)(=O)=O)cc1`, the half-inhibitory concentration (IC50) with MM1.S came out at 146 nM.

Take `CS(=O)(=O)Nc1cc(C#N)cc(/C(=C\n2cnc(-c3cc(C(F)(F)F)cc(C(F)(F)F)c3)n2)C(N)=O)c1`: the half-maximal inhibitory concentration (IC50) with MM1.S came out at 833 nM.

As for `NC(=O)/C(=C/n1cnc(-c2cc(C(F)(F)F)cc(C(F)(F)F)c2)n1)c1cncnc1` [ELTANEXOR], the IC50 in assay [1] is 130 nM; in the assay on YT, 103 nM; with H9, 139 nM; in [2], 334 nM; in the assay with NAMALVA, 93.8 nM; in assay [3], 287 nM. For the same molecule, the figures for the 50% inhibitory concentration (IC50) (in [4]; in assay [5]; in the assay with MM1.S) were 261 nM, 283 nM and 64 nM, respectively.

Regarding `NC(=O)/C(=C/n1cnc(-c2cc(C(F)(F)F)cc(C(F)(F)F)c2)n1)c1ccc(F)nc1F`, the IC50 in the assay on MM1.S stood at 667 nM.

On to `CS(=O)(=O)Nc1cccc(/C(=C\n2cnc(-c3cc(C(F)(F)F)cc(C(F)(F)F)c3)n2)C(N)=O)c1`, for which the IC50 in the assay with MM1.S stood at 271 nM.

Take `NC(=O)/C(=C/n1cnc(-c2cc(C(F)(F)F)cc(C(F)(F)F)c2)n1)c1cccc(F)c1F`: in the assay with MM1.S, the IC50 was found to be 5200 nM.

With `NC(=O)/C(=C/n1cnc(-c2cc(C(F)(F)F)cc(C(F)(F)F)c2)n1)c1cccnc1`, the 50% inhibitory concentration (IC50) in the assay on MM1.S came to 194 nM.

Take `COc1c(F)cc(/C(=C\n2cnc(-c3cc(C(F)(F)F)cc(C(F)(F)F)c3)n2)C(N)=O)cc1F`: in the assay on MM1.S, the concentration for half-maximal inhibition (IC50) turned out to be 3470 nM.

Source of the values: ChEMBL document CHEMBL5154835, “Design, synthesis and biological evaluation of sulfonamides inhibitors of XPO1 displaying activity against multiple myeloma cells” (Eur J Med Chem, 2022).
